Measured values as given in publication PMC7221574 (Molecules, 2020).
Where two headings read alike, the source gives them in different places.

Experiments:
A549 = assay: In vitro antiproliferative activity, SRB assay, A549; type: cell-based, human; details: for IC50: human lung adenocarcinoma, 72 h, SRB, mean ± SD; for selectivity index (SI) A549: SI = (IC50 BALB/3T3)/(IC50 A549)
Experimental: (§1) The A549 cell line was purchased from the European Collection of Authenticated Cell Cultures (ECACC, Salisbury, UK). The MCF-7, LoVo and LoVo/DX cell lines was purchased from American Type Culture Collection (ATCC, Manassas, VA, USA). All the cell lines are maintained in the Institute of Immunology and Experimental Therapy (IIET), Wroclaw, Poland.
(§2) Human lung adenocarcinoma cell line was cultured in a mixture of OptiMEM and RPMI 1640 (1:1) medium (IIET, Wroclaw, Poland), supplemented with 5% fetal bovine serum HyClone (GE Healthcare, USA) and 2 mM L-glutamine (Sigma-Aldrich, Germany). Human breast adenocarcinoma cell line was cultured in a mixture of Eagle medium (IIET, Wroclaw, Poland), supplemented with 10% fetal bovine serum, 2 mM L-glutamine, 8 μg/mL insulin and 1% amino acids (Sigma-Aldrich, Germany). Human colon adenocarcinoma cell lines were cultured in a mixture of OptiMEM and RPMI 1640 (1:1) medium (IIET, Wroclaw, Poland), supplemented with 5% fetal bovine serum HyClone (GE Healthcare, USA), 2 mM L-glutamine, 1 mM sodium pyruvate (Sigma-Aldrich, Germany) and 10 μg/100 mL doxorubicin (Accord) for LoVo/DX. Murine embryonic fibroblast cells were cultured in Dulbecco medium (Gibco), supplemented with 10% fetal bovine serum (GE Healthcare, USA) and 2 mM L-glutamine (Sigma-Aldrich, Germany). All culture media contained antibiotics: 100 U/mL penicillin (Polfa-Tarchomin, Poland) and 0.1 mg/mL streptomycin (Sigma Aldrich, Germany). All cell lines were cultured during entire experiment in humid atmosphere at 37 °C and 5% CO2.
(§3) All cell lines were exposed to each tested agent at different concentrations in the range 100–0.001 μg/mL for 72 h. The cells were also exposed to the reference drug cisplatin (Teva Pharmaceuticals, Poland) and doxorubicin (Accord Healthcare Limited, UK). Additionally, all cell lines were exposed to DMSO (solvent used for tested compounds) (POCh, Poland) at concentrations corresponding to those present in dilutions of tested agents. After 72 h sulforhodamine B assay (SRB) was performed.
(§4) After 72 h of incubation with the tested compounds, the cells were fixed in situ by gently adding of 50 μL per well of cold 50% trichloroacetic acid TCA (POCh, Poland) and were incubated at room temperature for one hour. Then the wells were washed four times with water and air dried. Next, 50 μL of 0.1% solution of sulforhodamine B (Sigma-Aldrich, Germany) in 1% acetic acid (POCh, Poland) were added to each well and were incubated at room temperature for 0.5 h. After incubation time, unbound dye was removed by washing plates four times with 1% acetic acid, whereas the stain bound to cells was solubilized with 150 μL of 10 mM Tris base (Sigma-Aldrich, Germany). Absorbance of each solution was read from a Synergy H4 Hybrid Multi-Mode Microplate Reader (BioTek Instruments, USA) at the 540 nm wavelength.

MCF-7 = assay: In vitro antiproliferative activity, SRB assay, MCF-7; type: cell-based, human; details: for IC50: human breast adenocarcinoma, 72 h, SRB, mean ± SD; for selectivity index (SI) MCF-7: SI = (IC50 BALB/3T3)/(IC50 MCF-7)
Experimental: as §1, §2, §3, §4

LoVo = assay: In vitro antiproliferative activity, SRB assay, LoVo; type: cell-based, human; details: for IC50: human colon adenocarcinoma, 72 h, SRB, mean ± SD; for selectivity index (SI) LoVo: SI = (IC50 BALB/3T3)/(IC50 LoVo)
Experimental: as §1, §2, §3, §4

LoVo/DX = assay: cells; type: cell-based, human; details: for RI (resistance index): RI = (IC50 for LoVo/DX)/(IC50 for LoVo); for IC50: 72 h, read-out: IC50 LoVo/DX
Experimental: as §1, §2, §3, §4

BALB/3T3 = assay: In vitro antiproliferative activity, SRB assay, normal fibroblasts BALB/3T3; type: cell-based, murine; details: for IC50: normal murine embryonic fibroblasts, 72 h, SRB, mean ± SD
Experimental: as §1, §2, §3, §4

| Structure (SMILES) | IC50 (A549) [nM] | IC50 (MCF-7) [nM] | IC50 (LoVo) [nM] | RI (resistance index) (LoVo/DX) | IC50 (LoVo/DX; doxorubicin-resistant colon adenocarcinoma subline, SRB, mean ± SD) [nM] | IC50 (BALB/3T3) [nM] | IC50 (A549; Homo sapiens, A549, 72 h) [nM] | IC50 (MCF-7; Homo sapiens, MCF7, 72 h) [nM] | IC50 (LoVo; Homo sapiens, LoVo) [nM] | IC50 (LoVo/DX; Homo sapiens, LoVo/DX) [nM] | IC50 (BALB/3T3; Mus musculus, BALB/3T3) [nM] | selectivity index (SI) LoVo (LoVo) | selectivity index (SI) A549 (A549) | selectivity index (SI) MCF-7 (MCF-7) | selectivity index (SI), cancer cell lines not named at the place (BALB/3T3; SI = (IC50 BALB/3T3)/(IC50 respective cancerous cell line), range over several lines) |
| --- | --- | --- | --- | --- | --- | --- | --- | --- | --- | --- | --- | --- | --- | --- | --- |
| N.N.[Cl][Pt][Cl] [Cisplatin, reference compound] | 5740 ± 968 | 7140 ± 1220 | 7080 ± 1600 | 1.2 | 8340 ± 1120 | 5665 ± 31.8 | – | – | – | – | – | – | – | – | – |
| CNc1ccc2c(cc1=O)[C@@H](NC(C)=O)CCc1cc(OC)c(OC)c(OC)c1-2 [Compound 2, 10-methylamino-10-demethoxycolchicine] | – | – | – | 63.0 | – | – | 10.8 ± 1.3 | 8.6 ± 1.3 | 4.3 ± 1.3 | 271 ± 99.9 | 10.8 ± 1.3 | – | – | – | – |
| CNc1ccc2c(cc1=O)[C@@H](N)CCc1cc(OC)c(OC)c(OC)c1-2 [Compound 3, N-deacetyl-10-methylamino-10-demethoxycolchicine] | 16.9 ± 2.8 | 19.7 ± 1.7 | 14 ± 1.7 | 9.2 | – | – | < 20 | < 20 | < 20 | 129 ± 11.8 | 19.7 ± 7 | – | – | – | – |
| CCC(=O)NC1CCc2cc(OC)c(OC)c(OC)c2-c2ccc(NC)c(=O)cc21 (stereo not shown) [Compound 4] | – | – | – | 28.0 | – | – | 14.6 ± 2.4 | 14.6 ± 1.5 | 9.7 ± 1.5 | 272 ± 104 | 19.4 ± 4.1 | – | – | – | – |
| CCCC(=O)N[C@H]1CCc2cc(OC)c(OC)c(OC)c2-c2ccc(NC)c(=O)cc21 [Compound 5] | – | – | – | 20.2 | – | – | 14.1 ± 2.4 | 14.1 ± 1.4 | 9.6 ± 0.5 | 195 ± 51.9 | 16.4 ± 3.5 | – | – | – | – |
| CCCCC(=O)NC1CCc2cc(OC)c(OC)c(OC)c2-c2ccc(NC)c(=O)cc21 (stereo not shown) [Compound 6] | – | – | – | 15.0 | – | – | 13.6 ± 1.4 | 15.9 ± 6.6 | 6.8 ± 3.9 | 102 ± 20.7 | 13.6 ± 2.3 | – | – | – | – |
| CCCCCCCCCCCCCCCC(=O)N[C@H]1CCc2cc(OC)c(OC)c(OC)c2-c2ccc(NC)c(=O)cc21 [Compound 7] | – | – | – | 39.0 | – | – | 614 ± 194 | 465 ± 187 | 62.4 ± 16.9 | 2440 ± 923 | 546 ± 104 | over 6 | – | – | – |
| CNc1ccc2c(cc1=O)C(NC(=O)C(C)C)CCc1cc(OC)c(OC)c(OC)c1-2 (stereo not shown) [Compound 8] | – | – | – | 24.3 | – | – | 11.7 ± 1.4 | 18.8 ± 9.9 | 7 ± 1.4 | 171 ± 41.3 | 28.1 ± 10.8 | 1.5–4.0 | 1.5–4.0 | 1.5–4.0 | – |
| CNc1ccc2c(cc1=O)C(NC(=O)CCl)CCc1cc(OC)c(OC)c(OC)c1-2 (stereo not shown) [Compound 9] | – | – | – | 35.2 | – | – | 11.6 ± 2.8 | 9.2 ± 1.4 | 1.8 ± 0.4 | 62.4 ± 6.7 | 11.6 ± 2.3 | over 6 | – | – | – |
| CNc1ccc2c(cc1=O)[C@@H](NC(=O)C(Cl)Cl)CCc1cc(OC)c(OC)c(OC)c1-2 [Compound 10] | – | – | – | 25.8 | – | – | 8.6 ± 1.3 | 8.6 ± 1.2 | 1.5 ± 0.5 | 38.5 ± 21.6 | 10.7 ± 1.3 | over 6 | – | – | – |
| CNc1ccc2c(cc1=O)C(NC(=O)CCC(F)(F)F)CCc1cc(OC)c(OC)c(OC)c1-2 (stereo not shown) [Compound 11, 4,4,4-trifluorobutyric amide of 10-N-methylaminocolchicine] | 14.6 ± 2.1 | 12.7 ± 0.4 | 10.4 ± 1.3 | 27.8 | – | – | 10.4 to 14.6 | 10.4 to 14.6 | 10.4 to 14.6 | 290 ± 165 | 81.3 ± 20.4 | higher than 5 | higher than 5 | higher than 5 | 5.6–7.8 |
